Laboratory results taken from patent US7635663B2, “Method for thinning fruit blossoms using eugenol” (The United States of America as represented by the …, priority 2006, dated 2009).
Where two headings read alike, the source gives them in different places.

Columns and labels:
[1] = system: 'Bisbee Spur Delicious' on MM.111 apple trees; experiment: Apple blossom thinning with eugenol and ATS, 2004; format: in vivo, Malus domestica; conditions: for Average fruit weight (g) / Total yield per tree (no.) / Flower burn back (% of flowers injured): Apple 'Bisbee'; for Average fruit weight (g) / Total yield per tree (no.) / Effect on yield: 2004; for Flower burn back (% of flowers injured): April 2004; for Effect on yield: Apple
Procedure: Each tree was an experimental unit, surrounded by buffer trees, with 4 single tree replications arranged in a completely randomized design.
Four branches per tree, each with 25 flowers, were measured; two branches opposite each other were perpendicular to the drive alley and the other two branches were opposite each other and parallel to the drive alley.

[2] = system: apple trees (Malus domestica 'Ace Spur Red Delicious' on M.7 rootstock); format: in vivo; conditions: for Flowers without wilted pistils and stamens 24 hr after application / Fruit (1 to 2 cm in diameter) one month after application / Fruit (2 to 4 cm in diameter) two months after application: Apple; for Flowers without wilted pistils and stamens 24 hr after application: of 100 flower clusters, spring 2003; for Fruit (1 to 2 cm in diameter) one month after application / Fruit (2 to 4 cm in diameter) two months after application: same 100 flower clusters, five fruit each
Procedure: Eugenol was applied to apple trees (Malus domestica ‘Ace Spur Red Delicious’ on M.7 rootstock) on 23 Apr. 2003 when “king” blossoms had been fully opened and subtending flowers were just opening. Temperatures were 18° C. under partly sunny conditions. One-hundred five-cluster groups of flowers were evaluated for damage 24 hr after application. Surviving fruit from the original clusters were counted 1 and 2 mo after application. Apples were harvested on 17 Sep. 2003 from each treated tree. Total fruit number and weight and size of individual fruit were measured.

[3] = system: 'Gala' on M.26 apple trees; format: in vivo, Malus domestica; conditions: for Fruit (no./tree) / Fruit weight (kg/tree) / Individual fruit weight: Apple 'Gala'
Procedure: On Apr. […] Treatments were arranged in 4-tree plots and there were 4 blocks containing all 8 treatments. Data was collected from 2 trees per plot, so each treatment was an average of 8 trees. Data was analyzed by analysis of variance and Duncan's Multiple Range Test.

[4] = system: 'Redhaven' on Lovell peach; experiment: Peach blossom thinning with different thinning agents, mist blower back pack sprayer, 2004; format: in vivo, Prunus persica
Procedure: In 2004, fewer concentrations of eugenol were tested in comparison with other chemical blossom thinners in apple and peach. […] 2004 with a pressurized power mist blower back pack sprayer. Peach trees had been planted in April 1997 with a 3-m spacing between trees. Treatments included eugenol and Matran® each applied at 1, 2, 4, and 8%. […] Each tree was an experimental unit, buffer trees surrounded each treated tree, and there were 5 replications arranged in a completely randomized design.
Response variables included (1) percent flowers wilted 24 hr after application based on a 100 flower (peach) or flower cluster (apple) sample per tree; (2) number apple fruit retained after June drop from the same 100-flower sample per tree; (3) number and weight of fruit per tree at harvest by size category; (4) visual estimation from two people of foliar and shoot damage. Four branches per tree, each with 25 flowers, were measured; two branches opposite each other were perpendicular to the drive alley and the other two branches were opposite each other and parallel to the drive alley.

[5] = system: peach trees (Prunus persica L. 'Redhaven' on Lovell rootstock); format: in vivo; conditions: for Fruit (1 to 2 cm in diameter) one month after application / Fruit (2 to 4 cm in diameter) two months after application / Flowers without wilted pistils and stamens 24 hr after application: of 100 flowers; for Flowers without wilted pistils and stamens 24 hr after application: spring 2003
Procedure: Materials and methods: Initial work determined general foliar and blossom injury response to increasing rates of eugenol in apple and peach trees. Eugenol was prepared as a suspension in water and applied with a hand-held sprayer (Sure Shot, Milwaukee Sprayer Mfg. Co., Inc., Milwaukee, Wis.) to flowers to the point of drip. Spray was applied to peach trees (Prunus persica L. ‘Redhaven’ on Lovell rootstock) at 60 psi when air temperature was approximately 21° C. with sunny conditions. Naturally-derived eugenol, extracted from cinnamon (Cinnamomum zeylanicum) or clove (Syzgium aromaticum), was obtained from Citrus and Allied (Floral Park, N.Y.). Peach tree flowers were approximately 60% in bloom when eugenol was applied on 14 Apr. 2003. One tree received one application of each concentration of eugenol. One-hundred flowers per tree, uniformly distributed throughout the crown were selected for measurement 24 hr, 1 mo, and 2 mos after application. At 24 hr, flowers with wilted pistils and stamens were considered killed and nonviable. Surviving fruit were counted 1 and 2 mo after application. Peaches were harvested on 7 Aug. 2003 from each treated tree. Total fruit number and weight and size of individual fruit were measured.

## C=CCc1ccc(O)c(OC)c1 [Eugenol, 2-methoxy-4-(2-propenyl)phenol]
[1]; rate 2%
  Average fruit weight (g): 152 a g
  Total yield per tree (no.): 543 a no.
  Flower burn back (% of flowers injured): 45 a %
[1]; rate 4%
  Average fruit weight (g): 155 a g
  Total yield per tree (no.): 462 a no.
  Flower burn back (% of flowers injured): 50 a %
[1]; rate 6%
  Average fruit weight (g): 167 a g
  Total yield per tree (no.): 443 a no.
  Flower burn back (% of flowers injured): 53 a %
[1]
  Effect on yield: did not affect yield
[2]; Apple flowers, 2003
  Concentration at which flower injury was apparent: 1.5%
[2]; 0.5% active ingredient
  Flowers without wilted pistils and stamens 24 hr after application: 100%
  Fruit (1 to 2 cm in diameter) one month after application: 18%
  Fruit (2 to 4 cm in diameter) two months after application: 16%
[2]; 1% active ingredient
  Flowers without wilted pistils and stamens 24 hr after application: 100%
  Fruit (1 to 2 cm in diameter) one month after application: 9%
  Fruit (2 to 4 cm in diameter) two months after application: 17%
[2]; 1.5% active ingredient
  Flowers without wilted pistils and stamens 24 hr after application: 93%
  Fruit (1 to 2 cm in diameter) one month after application: 10%
  Fruit (2 to 4 cm in diameter) two months after application: 12%
[2]; 2% active ingredient
  Flowers without wilted pistils and stamens 24 hr after application: 93%
  Fruit (1 to 2 cm in diameter) one month after application: 10%
  Fruit (2 to 4 cm in diameter) two months after application: 10%
[2]; 4% active ingredient
  Flowers without wilted pistils and stamens 24 hr after application: 68%
  Fruit (1 to 2 cm in diameter) one month after application: 8%
  Fruit (2 to 4 cm in diameter) two months after application: 6%
[2]; 6% active ingredient
  Flowers without wilted pistils and stamens 24 hr after application: 43%
  Fruit (1 to 2 cm in diameter) one month after application: 1%
  Fruit (2 to 4 cm in diameter) two months after application: 2%
[2]; 8% active ingredient
  Flowers without wilted pistils and stamens 24 hr after application: 32%
  Fruit (1 to 2 cm in diameter) one month after application: 2%
  Fruit (2 to 4 cm in diameter) two months after application: 2%
[2]; 10% active ingredient
  Flowers without wilted pistils and stamens 24 hr after application: 27%
  Fruit (1 to 2 cm in diameter) one month after application: 1%
  Fruit (2 to 4 cm in diameter) two months after application: 0%
[2]; in vivo
  Fruit or leaf injury: no fruit or leaf injury
  Phytotoxicity by 2 months after application: no sign of eugenol-induced phytotoxicity
[3]; thinner applied at 4%, 2005
  Fruit (no./tree): 137 no./tree
  Fruit weight (kg/tree): 20.5 kg/tree
  Individual fruit weight: 148 g
[3]; thinner applied at 6%, 2005
  Fruit (no./tree): 86 no./tree
  Fruit weight (kg/tree): 10.2 kg/tree
  Individual fruit weight: 129 g
[3]; in vivo
  Leaf injury: injury was superficial, did not persist, and was not observed within four weeks of application
[4]; 2004
  Rates at which fruit number was reduced: higher than 2%
[4]; rate 1%, 2004
  Average fruit weight (g): 76 cde g
  Total yield per tree (no.): 684 a no.
[4]; rate 1%, April 2004
  Flower burn back (% of flowers injured): 15 b^a %
[4]; rate 2%, 2004
  Average fruit weight (g): 87 bcde g
  Total yield per tree (no.): 384 bc no.
[4]; rate 2%, April 2004
  Flower burn back (% of flowers injured): 27 ab %
[4]; rate 2%, April 2004, listed as eugenol
  Flower burn back (% of flowers injured): 27%
[4]; rate 4%, 2004
  Average fruit weight (g): 103 abc g
  Total yield per tree (no.): 470 abc no.
[4]; rate 4%, April 2004
  Flower burn back (% of flowers injured): 39 ab %
[4]; rate 4%, April 2004, listed as eugenol
  Flower burn back (% of flowers injured): 49%
[4]; rate 8%, 2004
  Average fruit weight (g): 112 ab g
  Total yield per tree (no.): 404 bc no.
[4]; rate 8%, April 2004
  Flower burn back (% of flowers injured): 49 a %
[4]; rate 8%, April 2004, listed as eugenol
  Flower burn back (% of flowers injured): approximately 50%
[5]; Peach flowers, 2003
  Concentration at which flower injury was apparent: 1.5%
[5]; Peach, 0.5% active ingredient
  Fruit (1 to 2 cm in diameter) one month after application: 64%
  Fruit (2 to 4 cm in diameter) two months after application: 40%
  Flowers without wilted pistils and stamens 24 hr after application: 100%
[5]; Peach, 1% active ingredient
  Fruit (1 to 2 cm in diameter) one month after application: 28%
  Fruit (2 to 4 cm in diameter) two months after application: 16%
  Flowers without wilted pistils and stamens 24 hr after application: 100%
[5]; Peach, 1.5% active ingredient
  Fruit (1 to 2 cm in diameter) one month after application: 36%
  Fruit (2 to 4 cm in diameter) two months after application: 16%
  Flowers without wilted pistils and stamens 24 hr after application: 95%
[5]; Peach, 2% active ingredient
  Fruit (1 to 2 cm in diameter) one month after application: 20%
  Fruit (2 to 4 cm in diameter) two months after application: 6%
  Flowers without wilted pistils and stamens 24 hr after application: 85%
[5]; Peach, 4% active ingredient
  Fruit (1 to 2 cm in diameter) one month after application: 20%
  Fruit (2 to 4 cm in diameter) two months after application: 5%
  Flowers without wilted pistils and stamens 24 hr after application: 62%
[5]; Peach, 6% active ingredient
  Fruit (1 to 2 cm in diameter) one month after application: 22%
  Fruit (2 to 4 cm in diameter) two months after application: 5%
  Flowers without wilted pistils and stamens 24 hr after application: 50%
[5]; Peach, 8% active ingredient
  Fruit (1 to 2 cm in diameter) one month after application: 17%
  Fruit (2 to 4 cm in diameter) two months after application: 3%
  Flowers without wilted pistils and stamens 24 hr after application: 39%
[5]; Peach, 10% active ingredient
  Fruit (1 to 2 cm in diameter) one month after application: 0%
  Fruit (2 to 4 cm in diameter) two months after application: 5%
  Flowers without wilted pistils and stamens 24 hr after application: 31%
[5]; Peach, 2003
  Time after application until peach flowers began to appear bleached and leaf tips developed necrotic lesions: ≤ 1 h
[5]; in vivo
  Fruit or leaf injury: No fruit or leaf injury
  Phytotoxicity by 2 months after application: no sign of eugenol-induced phytotoxicity

## ammonium thiosulfate [ATS, reference compound]
[1]; applied at 3.5 gal/A
  Average fruit weight (g): 153 a g
  Total yield per tree (no.): 570 a no.
  Flower burn back (% of flowers injured): 50 a %
[1]
  Effect on yield: did not affect yield
[3]; thinner applied at 2%, 2005
  Fruit (no./tree): 789 no./tree
  Fruit weight (kg/tree): 83.3 kg/tree
  Individual fruit weight: 109 g
[3]; thinner applied at 4%, 2005
  Fruit (no./tree): 706 no./tree
  Fruit weight (kg/tree): 79.8 kg/tree
  Individual fruit weight: 120 g
[3]; Apple, 2005
  Performance as thinner: not a good thinner
[4]; 2004
  Fruit number per peach tree compared with control: reduced
[4]; applied at 5.25 gal/A, 2004
  Average fruit weight (g): 125 a g
  Total yield per tree (no.): 345 c no.
